Measured values from patent publication US20180155757A1, “IDENTIFICATION OF BACTERIA THAT ARE RESISTANT TO CARBAPENEMS BY MEMBRANE IMPERVIOUSNESS” (BIOMÉRIEUX, priority 2015, published 2018).
Read-outs that look alike come from different tables or passages of the source.

Columns and labels:
Test in all cases: Etest MIC of indicator carbapenems on MH II agar without/with PMBN
Format in all cases: cell-based
[1] = test system: E. coli 1204043
Experimental: (§1) The determinations of antibiotic MIC were carried out on solid culture media with the Etest® method. To do this, Etest® strips (bioMérieux, France) were used: • Etest® Imipenem IM 32, and • Etest® Ertapenem ETP 32, and also solid culture media, differing from one another by virtue of their non-inhibitory concentrations of PMBN.
(§2) These solid culture media are prepared in Petri dishes (0=145 mm; V=50 ml) on a base of MH II Agar (Becton Dickinson®, United States), more or less supplemented with PMBN. The PMBN concentrations range from 0 up to concentrations equivalent to one fifth of the MIC of PMBN (⅕ MICPMBN).
(§3) Using a swab and the Retro C80™ rota-plater (bioMérieux, France), the culture media were inoculated with the bacteria, originating from an inoculum of 0.5 McFarland, prepared in 0.85% NaCl solution from colonies subcultured the day before on MH II agar.
(§4) The various Etest® strips are then deposited on the surface of the culture media. After 16 to 20 hours of incubation at 35° C., the MICS were read.
(§5) To do this, imipenem and ertapenem were used as indicator carbapenems. Non-inhibitory concentrations of PMBN, equivalent to concentrations of one tenth ( 1/10), one eighth (⅛) and one fifth (⅕) of the MIC of PMBN, were applied.
(§6) In the light of the MICPMBN values previously identified, very predominantly much higher than 300 μg/ml, the following standard concentrations were retained and applied to the bacterial strains to be tested: 50, 100, 150, 200 and 300 μg/ml.
(§7) By way of indicator carbapenems according to the invention, in addition to imipenem (IM) and ertapenem (ETP), meropenem (MP) was also tested. Like the other two antibiotics, meropenem was used in the form of Etest® strips (Etest® Meropenem MP 32 from the company bioMérieux, France).
(§8) The methods used to prepare the new culture media and to carry out the antibiotic-sensitivity tests are identical to those described above.

[2] = test system: E. aerogenes 9203076
Experimental: as §1, §2, §3, §4, §5, §6, §7, §8

[3] = test system: E. cloacae 9402034
Experimental: as §1, §2, §3, §4, §5, §6, §7, §8

[4] = test system: K. pneumoniae 1204034
Experimental: as §1, §2, §3, §4, §5, §6, §7, §8

[5] = test system: K. pneumoniae 1002015
Experimental: as §1, §2, §3, §4, §5, §6, §7, §8

[6] = test system: E. aerogenes 1204048; conditions: in µg/mL
Experimental: as §1, §2, §3, §4, §5, §6, §7, §8

[7] = test system: E. aerogenes 9306071
Experimental: as §1, §2, §3, §4, §5, §6, §7, §8

[8] = test system: E. cloacae 1008080 (IMP producer); conditions: in µg/mL
Experimental: as §1, §2, §3, §4, §7, §8

[9] = test system: K. pneumoniae KP 63 (porin−); conditions: Klebsiella pneumoniae
Experimental: as §1, §2, §3, §4, §7, §8

[10] = test system: K. pneumoniae 1108003 (KPC-3 producer)
Experimental: as §1, §2, §3, §4, §7, §8

[11] = test system: E. cloacae 1008074 (VIM producer)
Experimental: as §1, §2, §3, §4, §7, §8

[12] = test system: E. cloacae 1204056 (membrane impermeability)
Experimental: as §1, §2, §3, §4, §7, §8

[13] = test system: E. cloacae 1204051 (membrane impermeability)
Experimental: as §1, §2, §3, §4, §7, §8

C[C@@H](O)[C@H]1C(=O)N2C(C(=O)O)=C(S[C@@H]3CN[C@H](C(=O)Nc4cccc(C(=O)O)c4)C3)[C@H](C)[C@H]12 [ETP, ertapenem]
MIC ([1]; E. coli 1204043 (membrane impermeability), [PMBN] 0, Table 4a, in µg/mL): >32
MIC ([1]; E. coli 1204043 (membrane impermeability), [PMBN] 100, Table 4a, in µg/mL): 6
MIC ([1]; E. coli 1204043 (membrane impermeability), [PMBN] 200, Table 4a, in µg/mL): 2-4
MIC ([1]; E. coli 1204043 (membrane impermeability), [PMBN] 300, Table 4a, in µg/mL): 1.5
MIC ([1]; E. coli 1204043, [PMBN] 0, Table 3, in µg/mL): 32
MIC ([1]; E. coli 1204043, [PMBN] MIC/5, in µg/mL): 1
MIC ([1]; E. coli 1204043, [PMBN] MIC/8, in µg/mL): 2
MIC ([1]; E. coli 1204043, [PMBN] MIC/10, in µg/mL): 1
MIC ([1]; Escherichia coli, 1204043, E. coli 1204043 (porin−), [PMBN] 0, Table 4, read-out: MIC): > 32 µg/mL
MIC ([1]; Escherichia coli, 1204043, E. coli 1204043 (porin−), [PMBN] 150 μg/ml, Table 4, read-out: MIC): 0.38 µg/mL
MIC ([1]; Escherichia coli, 1204043, E. coli 1204043 (porin−), [PMBN] 200 μg/ml, Table 4, read-out: MIC): 0.19 µg/mL
MIC ([2]; E. aerogenes 9203076 (membrane impermeability), [PMBN] 0, Table 4a, in µg/mL): >32
MIC ([2]; E. aerogenes 9203076 (membrane impermeability), [PMBN] 100, Table 4a, in µg/mL): 16
MIC ([2]; E. aerogenes 9203076 (membrane impermeability), [PMBN] 200, Table 4a, in µg/mL): 12
MIC ([2]; E. aerogenes 9203076 (membrane impermeability), [PMBN] 300, Table 4a, in µg/mL): 4
MIC ([2]; E. aerogenes 9203076, [PMBN] 0, Table 3, in µg/mL): 32
MIC ([2]; E. aerogenes 9203076, [PMBN] MIC/5, in µg/mL): 2
MIC ([2]; E. aerogenes 9203076, [PMBN] MIC/8, in µg/mL): 4
MIC ([2]; E. aerogenes 9203076, [PMBN] MIC/10, in µg/mL): 4
MIC ([2]; Klebsiella aerogenes, 9203076, E. aerogenes 9203076 (porin−), [PMBN] 0, Table 4, read-out: MIC): 24 µg/mL
MIC ([2]; Klebsiella aerogenes, 9203076, E. aerogenes 9203076 (porin−), [PMBN] 150 μg/ml, Table 4, read-out: MIC): 3 µg/mL
MIC ([2]; Klebsiella aerogenes, 9203076, E. aerogenes 9203076 (porin−), [PMBN] 200 μg/ml, Table 4, read-out: MIC): 1.5 µg/mL
MIC ([3]; E. cloacae 9402034 (membrane impermeability), [PMBN] 0, Table 4a): > 32 µg/mL
MIC ([3]; E. cloacae 9402034 (membrane impermeability), [PMBN] 100, Table 4a): > 32 µg/mL
MIC ([3]; E. cloacae 9402034 (membrane impermeability), [PMBN] 200, Table 4a): 12 µg/mL
MIC ([3]; E. cloacae 9402034 (membrane impermeability), [PMBN] 300, Table 4a): 12 µg/mL
MIC ([3]; E. cloacae 9402034, [PMBN] 0, Table 3): 64 µg/mL
MIC ([3]; E. cloacae 9402034, [PMBN] MIC/5): 16 µg/mL
MIC ([3]; E. cloacae 9402034, [PMBN] MIC/8): 16 µg/mL
MIC ([3]; E. cloacae 9402034, [PMBN] MIC/10): 16 µg/mL
MIC ([4]; K. pneumoniae 1204034 (membrane impermeability), [PMBN] 0, Table 4a): > 32 µg/mL
MIC ([4]; K. pneumoniae 1204034 (membrane impermeability), [PMBN] 100, Table 4a): 12 µg/mL
MIC ([4]; K. pneumoniae 1204034 (membrane impermeability), [PMBN] 200, Table 4a): 3 µg/mL
MIC ([4]; K. pneumoniae 1204034 (membrane impermeability), [PMBN] 300, Table 4a): 2 µg/mL
MIC ([4]; K. pneumoniae 1204034, [PMBN] 0, Table 3): 64 µg/mL
MIC ([4]; K. pneumoniae 1204034, [PMBN] MIC/5): 4 µg/mL
MIC ([4]; K. pneumoniae 1204034, [PMBN] MIC/8): 4 µg/mL
MIC ([4]; K. pneumoniae 1204034, [PMBN] MIC/10): 8 µg/mL
MIC ([4]; Klebsiella pneumoniae, 1204034, K. pneumoniae 1204034 (porin−), [PMBN] 0, Table 4, read-out: MIC): > 32 µg/mL
MIC ([4]; Klebsiella pneumoniae, 1204034, K. pneumoniae 1204034 (porin−), [PMBN] 150 μg/ml, Table 4, read-out: MIC): 1.5 µg/mL
MIC ([4]; Klebsiella pneumoniae, 1204034, K. pneumoniae 1204034 (porin−), [PMBN] 200 μg/ml, Table 4, read-out: MIC): 1 µg/mL
MIC ([5]; K. pneumoniae 1002015, [PMBN] 0, Table 3): 32 µg/mL
MIC ([5]; K. pneumoniae 1002015, [PMBN] MIC/5): 1 µg/mL
MIC ([5]; K. pneumoniae 1002015, [PMBN] MIC/8): 2 µg/mL
MIC ([5]; K. pneumoniae 1002015, [PMBN] MIC/10): 4 µg/mL
MIC ([5]; Klebsiella pneumoniae, 1002015, K. pneumoniae 1002015 (porin−), [PMBN] 0, Table 4, read-out: MIC): 4 µg/mL
MIC ([5]; Klebsiella pneumoniae, 1002015, K. pneumoniae 1002015 (porin−), [PMBN] 150 μg/ml, Table 4, read-out: MIC): 0.5 µg/mL
MIC ([5]; Klebsiella pneumoniae, 1002015, K. pneumoniae 1002015 (porin−), [PMBN] 200 μg/ml, Table 4, read-out: MIC): 0.38 µg/mL
MIC ([6]; E. aerogenes 1204048 (membrane impermeability), [PMBN] 0, Table 4a): >32
MIC ([6]; E. aerogenes 1204048 (membrane impermeability), [PMBN] 100, Table 4a): 16
MIC ([6]; E. aerogenes 1204048 (membrane impermeability), [PMBN] 200, Table 4a): 16
MIC ([6]; E. aerogenes 1204048 (membrane impermeability), [PMBN] 300, Table 4a): 8
MIC ([6]; E. aerogenes 1204048, [PMBN] 0, Table 3): 32
MIC ([6]; E. aerogenes 1204048, [PMBN] MIC/5): 2
MIC ([6]; E. aerogenes 1204048, [PMBN] MIC/8): 2
MIC ([6]; E. aerogenes 1204048, [PMBN] MIC/10): 4
MIC ([7]; E. aerogenes 9306071 (membrane impermeability), [PMBN] 0, Table 4a): > 32 µg/mL
MIC ([7]; E. aerogenes 9306071 (membrane impermeability), [PMBN] 100, Table 4a): 12 µg/mL
MIC ([7]; E. aerogenes 9306071 (membrane impermeability), [PMBN] 200, Table 4a): 8 µg/mL
MIC ([7]; E. aerogenes 9306071 (membrane impermeability), [PMBN] 300, Table 4a): 4 µg/mL
MIC ([7]; E. aerogenes 9306071, [PMBN] 0, Table 3): 32 µg/mL
MIC ([7]; E. aerogenes 9306071, [PMBN] MIC/5): 4 µg/mL
MIC ([7]; E. aerogenes 9306071, [PMBN] MIC/8): 4 µg/mL
MIC ([7]; E. aerogenes 9306071, [PMBN] MIC/10): 4 µg/mL
MIC ([8]; [PMBN] 0, Table 4a): 16
MIC ([8]; [PMBN] 100, Table 4a): 24
MIC ([8]; [PMBN] 200, Table 4a): >32
MIC ([8]; [PMBN] 300, Table 4a): 12-24
MIC ([9]; [PMBN] 0): 1 µg/mL
MIC ([9]; [PMBN] 50 μg/ml): 0.5 µg/mL
MIC ([9]; [PMBN] 100 μg/ml): 0.38 µg/mL
MIC ([9]; [PMBN] 150 μg/ml): 0.19 µg/mL
MIC ([9]; [PMBN] 200 μg/ml): 0.125 µg/mL
MIC ([10]; [PMBN] 0, Table 4a): 8 µg/mL
MIC ([10]; [PMBN] 100, Table 4a): 24 µg/mL
MIC ([10]; [PMBN] 200, Table 4a): > 32 µg/mL
MIC ([10]; [PMBN] 300, Table 4a): > 32 µg/mL
MIC ([11]; [PMBN] 0, Table 4a): 0.38 µg/mL
MIC ([11]; [PMBN] 100, Table 4a): 0.5 µg/mL
MIC ([11]; [PMBN] 200, Table 4a): 0.5 µg/mL
MIC ([11]; [PMBN] 300, Table 4a): 0.5 µg/mL
MIC ([12]; [PMBN] 0, Table 4a): > 32 µg/mL
MIC ([12]; [PMBN] 100, Table 4a): 12 µg/mL
MIC ([12]; [PMBN] 200, Table 4a): 3 µg/mL
MIC ([12]; [PMBN] 300, Table 4a): 1 µg/mL
MIC ([13]; [PMBN] 0, Table 4a): > 32 µg/mL
MIC ([13]; [PMBN] 100, Table 4a): 12 µg/mL
MIC ([13]; [PMBN] 200, Table 4a): 4 µg/mL
MIC ([13]; [PMBN] 300, Table 4a): 3 µg/mL
